Assay results from PubChem BioAssay AID1963982 (Molecular Pharmacology Branch, DTP, NCI, 2024).
pIC50: −log10 of the molar value.

Tested on: 313798-341-R-J2-PDC spheroids, viability
Experiment: Anticancer human tumor 313798-341-R-J2-PDC patient-derived cervical squamous cell carcinoma cell line growth inhibition [PI3K]
Settings: spheroids with HUVEC and MSC; for pIC50: curve of first compound; for viability, T/C: stronger effect = lower value
How it was run: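 Complex 3D spheroids (cancer cells + endothelial HUVEC + mesenchymal stem cells); drug pairs of targeted agent x inavolisib/alpelisib/duvelisib/copanlisib; half-log series from ~Cmax, max 10 microM if Cmax unknown; endpoint viability.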

[1] = second compound 0.0316 µM, first compound 0.0316 µM
[2] = second compound 0.0316 µM, first compound 0.1 µM
[3] = second compound 0.1 µM, first compound 0.0316 µM
[4] = second compound 0.1 µM, first compound 0.1 µM
[5] = second compound 0.316 µM, first compound 0.0316 µM
[6] = second compound 0.316 µM, first compound 0.1 µM
[7] = second compound 1 µM, first compound 0.0316 µM
[8] = second compound 1 µM, first compound 0.1 µM
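Note: spheroids exposed to compounds for seven days.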
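Throughout, for viability, T/C: 100% = DMSO vehicle control viability.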

CC(=O)c1c(C)c2cnc(Nc3ccc(N4CCNCC4)cn3)nc2n(C2CCCC2)c1=O + Cc1nc(NC(=O)N2CCCC2C(N)=O)sc1-c1ccnc(C(C)(C)C(F)(F)F)c1
pIC50 (second compound 0.0316 µM): < 7.00 | pIC50 (second compound 0.1 µM): < 7.00 | pIC50 (second compound 0.316 µM): < 7.00 | pIC50 (second compound 1 µM): < 7.00 | pIC50 (second compound 3.16 µM): < 7.00 | pIC50 (second compound 10 µM): > 9.50 | viability, T/C (second compound 0.0316 µM, first compound 0.000316 µM): 105% | viability, T/C (second compound 0.0316 µM, first compound 0.001 µM): 96.5% | viability, T/C (second compound 0.0316 µM, first compound 0.00316 µM): 110% | viability, T/C (second compound 0.0316 µM, first compound 0.01 µM): 105% | viability, T/C [1]: 108% | viability, T/C [2]: 111% | viability, T/C (second compound 0.1 µM, first compound 0.000316 µM): 108% | viability, T/C (second compound 0.1 µM, first compound 0.001 µM): 99.1% | viability, T/C (second compound 0.1 µM, first compound 0.00316 µM): 107% | viability, T/C (second compound 0.1 µM, first compound 0.01 µM): 107% | viability, T/C [3]: 123% | viability, T/C [4]: 110% | viability, T/C (second compound 0.316 µM, first compound 0.000316 µM): 110% | viability, T/C (second compound 0.316 µM, first compound 0.001 µM): 101% | viability, T/C (second compound 0.316 µM, first compound 0.00316 µM): 96.3% | viability, T/C (second compound 0.316 µM, first compound 0.01 µM): 108% | viability, T/C [5]: 104% | viability, T/C [6]: 115% | viability, T/C (second compound 1 µM, first compound 0.000316 µM): 95.2% | viability, T/C (second compound 1 µM, first compound 0.001 µM): 98.1% | viability, T/C (second compound 1 µM, first compound 0.00316 µM): 96% | viability, T/C (second compound 1 µM, first compound 0.01 µM): 98.7% | viability, T/C [7]: 104% | viability, T/C [8]: 102% | viability, T/C (second compound 3.16 µM, first compound 0.000316 µM): 68.3% | viability, T/C (second compound 3.16 µM, first compound 0.001 µM): 58.9% | viability, T/C (second compound 3.16 µM, first compound 0.00316 µM): 71.8% | viability, T/C (second compound 3.16 µM, first compound 0.01 µM): 69.4% | viability, T/C (second compound 3.16 µM, first compound 0.0316 µM): 58.4% | viability, T/C (second compound 3.16 µM, first compound 0.1 µM): 79% | viability, T/C (second compound 10 µM, first compound 0.000316 µM): 40.4% | viability, T/C (second compound 10 µM, first compound 0.001 µM): 41.7% | viability, T/C (second compound 10 µM, first compound 0.00316 µM): 39.5% | viability, T/C (second compound 10 µM, first compound 0.01 µM): 33% | viability, T/C (second compound 10 µM, first compound 0.0316 µM): 41.4% | viability, T/C (second compound 10 µM, first compound 0.1 µM): 36.4%

CC1(C)CCC(Nc2ncc(C(F)(F)F)c(-c3c[nH]c4c(P(C)(C)=O)c(C#N)ccc34)n2)CN1 (centres undefined) + COc1c(OCCCN2CCOCC2)ccc2c3n(c(=NC(=O)c4cnc(N)nc4)nc12)CCN3
pIC50 (second compound 0.00316 µM): > 7.50 | pIC50 (second compound 0.01 µM): > 7.50 | pIC50 (second compound 0.0316 µM): > 7.50 | pIC50 (second compound 0.1 µM): > 7.50 | pIC50 (second compound 0.316 µM): > 7.50 | pIC50 (second compound 1 µM): > 7.50 | viability, T/C (second compound 0.00316 µM, first compound 0.0316 µM): 44.6% | viability, T/C (second compound 0.00316 µM, first compound 0.1 µM): 42.3% | viability, T/C (second compound 0.00316 µM, first compound 0.316 µM): 39.7% | viability, T/C (second compound 0.00316 µM, first compound 1 µM): 43.9% | viability, T/C (second compound 0.00316 µM, first compound 3.16 µM): 45.4% | viability, T/C (second compound 0.00316 µM, first compound 10 µM): 33.7% | viability, T/C (second compound 0.01 µM, first compound 0.0316 µM): 39.6% | viability, T/C (second compound 0.01 µM, first compound 0.1 µM): 34.7% | viability, T/C (second compound 0.01 µM, first compound 0.316 µM): 36.8% | viability, T/C (second compound 0.01 µM, first compound 1 µM): 38.1% | viability, T/C (second compound 0.01 µM, first compound 3.16 µM): 43.1% | viability, T/C (second compound 0.01 µM, first compound 10 µM): 29.1% | viability, T/C [1]: 27.4% | viability, T/C [2]: 27.9% | viability, T/C (second compound 0.0316 µM, first compound 0.316 µM): 27.4% | viability, T/C (second compound 0.0316 µM, first compound 1 µM): 27.9% | viability, T/C (second compound 0.0316 µM, first compound 3.16 µM): 26.5% | viability, T/C (second compound 0.0316 µM, first compound 10 µM): 16.5% | viability, T/C [3]: 18.9% | viability, T/C [4]: 21.1% | viability, T/C (second compound 0.1 µM, first compound 0.316 µM): 20% | viability, T/C (second compound 0.1 µM, first compound 1 µM): 20.2% | viability, T/C (second compound 0.1 µM, first compound 3.16 µM): 21.5% | viability, T/C (second compound 0.1 µM, first compound 10 µM): 3.93% | viability, T/C [5]: 12.2% | viability, T/C [6]: 11.7% | viability, T/C (second compound 0.316 µM, first compound 0.316 µM): 12.2% | viability, T/C (second compound 0.316 µM, first compound 1 µM): 12% | viability, T/C (second compound 0.316 µM, first compound 3.16 µM): 8.87% | viability, T/C (second compound 0.316 µM, first compound 10 µM): 1.12% | viability, T/C [7]: 9.94% | viability, T/C [8]: 9.34% | viability, T/C (second compound 1 µM, first compound 0.316 µM): 7.8% | viability, T/C (second compound 1 µM, first compound 1 µM): 7.89% | viability, T/C (second compound 1 µM, first compound 3.16 µM): 5.87% | viability, T/C (second compound 1 µM, first compound 10 µM): 1.15%
